Assay results from publication PMC7044277 (Nature Communications, 2020).
Values joined by “and” are separate entries in the source; they are usually repeats but may differ in a detail not shown here. Identical values can stand only once.

Legend:
Type in all cases: cell-based
[1] = biological target: T1, 320 non-olfactory GPCRs (Homo sapiens, UniProt P25929); conditions: receptor NPY1R; replicate values, Fig_4g
T1 construct: expressed in transfected cells; host or cells: HTLA cells

[2] = biological target: T2, 320 non-olfactory GPCRs (Homo sapiens, UniProt P51679)
T2 construct: expressed in transfected cells; host or cells: HTLA cells
T2 sequence (P51679 whole entry): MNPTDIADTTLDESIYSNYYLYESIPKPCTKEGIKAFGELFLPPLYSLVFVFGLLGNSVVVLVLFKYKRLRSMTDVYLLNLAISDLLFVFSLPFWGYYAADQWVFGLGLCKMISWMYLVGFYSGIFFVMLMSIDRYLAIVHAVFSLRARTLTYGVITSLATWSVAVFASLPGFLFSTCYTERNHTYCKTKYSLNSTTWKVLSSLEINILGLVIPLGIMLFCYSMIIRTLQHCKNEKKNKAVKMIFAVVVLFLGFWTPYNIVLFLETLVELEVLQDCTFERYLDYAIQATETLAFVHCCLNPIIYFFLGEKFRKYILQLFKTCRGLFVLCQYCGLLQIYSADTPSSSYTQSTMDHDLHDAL

[3] = biological target: T3, 320 non-olfactory GPCRs (Homo sapiens, UniProt P43115); conditions: receptor PTGER3; replicate values, Fig_4g
T3 construct: expressed in transfected cells; host or cells: HTLA cells
T3 sequence (P43115 whole entry): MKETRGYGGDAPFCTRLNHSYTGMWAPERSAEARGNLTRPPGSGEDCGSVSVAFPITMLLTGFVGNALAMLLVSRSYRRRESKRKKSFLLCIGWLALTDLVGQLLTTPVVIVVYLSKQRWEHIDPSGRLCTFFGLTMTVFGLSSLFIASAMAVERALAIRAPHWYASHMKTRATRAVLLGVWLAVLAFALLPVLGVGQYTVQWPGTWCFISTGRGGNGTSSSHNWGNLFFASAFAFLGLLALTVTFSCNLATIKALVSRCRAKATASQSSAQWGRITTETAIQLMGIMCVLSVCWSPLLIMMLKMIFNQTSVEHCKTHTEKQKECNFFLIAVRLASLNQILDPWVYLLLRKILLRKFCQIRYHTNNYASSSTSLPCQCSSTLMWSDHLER

[4] = biological target: T4, 320 non-olfactory GPCRs (Homo sapiens, UniProt Q15391); conditions: receptor P2RY14; replicate values, Fig_4g
T4 construct: expressed in transfected cells; host or cells: HTLA cells
T4 sequence (Q15391 whole entry): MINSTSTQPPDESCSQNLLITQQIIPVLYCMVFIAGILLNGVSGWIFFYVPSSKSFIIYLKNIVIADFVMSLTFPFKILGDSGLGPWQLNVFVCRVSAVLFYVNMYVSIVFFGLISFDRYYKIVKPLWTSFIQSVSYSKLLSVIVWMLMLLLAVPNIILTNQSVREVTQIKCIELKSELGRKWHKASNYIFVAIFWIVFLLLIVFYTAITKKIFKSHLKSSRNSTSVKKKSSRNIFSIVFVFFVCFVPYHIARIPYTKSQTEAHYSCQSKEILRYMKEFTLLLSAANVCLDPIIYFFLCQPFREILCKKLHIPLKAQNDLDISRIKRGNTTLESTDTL
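For Fold of Basal in this document: compound tested at 1 µM final concentration.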
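For GPCRome agonism screen response in this document: fold over basal response of each receptor without drug.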

T1 sequence (P25929 whole entry): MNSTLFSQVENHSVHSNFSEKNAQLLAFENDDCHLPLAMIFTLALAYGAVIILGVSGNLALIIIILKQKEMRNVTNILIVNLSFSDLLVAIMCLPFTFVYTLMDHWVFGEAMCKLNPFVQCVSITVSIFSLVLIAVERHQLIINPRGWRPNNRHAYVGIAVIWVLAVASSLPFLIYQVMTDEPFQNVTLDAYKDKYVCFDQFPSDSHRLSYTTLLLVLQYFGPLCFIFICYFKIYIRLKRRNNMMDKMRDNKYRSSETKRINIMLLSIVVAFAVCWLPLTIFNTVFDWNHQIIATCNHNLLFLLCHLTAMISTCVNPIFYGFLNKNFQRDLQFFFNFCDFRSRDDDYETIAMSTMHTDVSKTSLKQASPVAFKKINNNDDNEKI

Question: With `CCOc1cccc2cc(C(C)NCC3(O)CCCCC3)oc12` (stereo not shown) [O4LE6] as the compound, how does the “GPCRome agonism screen response” value [1] read?
Answer: 0.9657 and 1.278 and 0.9923 and 0.817

Question: What about the “Fold of Basal” value [2] of the same compound?
Answer: 1.013 and 0.8978 and 0.7406 and 0.6452

Question: What about the “GPCRome agonism screen response” value [3] of the same compound?
Answer: 0.07165 and 0.9825 and 0.5999

Question: What about the “GPCRome agonism screen response” value [4] of the same compound?
Answer: 0.8976 and 0.7161 and 0.7434 and 0.9997
